Assays:
Assay in all cases: relative viability (nuclei count vs DMSO), 5 days (fraction); higher = more cells survive
Everolimus + Foretinib = compound: CO[C@H]1C[C@@H]2CC[C@@H](C)[C@@](O)(O2)C(=O)C(=O)N2CCCC[C@H]2C(=O)O[C@H]([C@H](C)C[C@@H]2CC[C@@H](OCCO)[C@H](OC)C2)CC(=O)[C@H](C)/C=C(\C)[C@@H](O)[C@@H](OC)C(=O)[C@H](C)C[C@H](C)/C=C/C=C/C=C/1C [Everolimus] + COc1cc2c(Oc3ccc(NC(=O)C4(C(=O)Nc5ccc(F)cc5)CC4)cc3F)ccnc2cc1OCCCN1CCOCC1 [Foretinib] (partner 0.25 µM)
Method in brief: (§1)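 Cells from lung cancer lines were seeded into 1536-well plates and, one day later, dosed by pin tool. Treatments were either a single drug or a fixed dose of an anchor drug with five library-drug doses (not always all listed) in √10 steps. After 5 days, nuclei were stained in a one-step fixation (final 0.05% Triton X-100, 1% formaldehyde, 1 ug/ml Hoechst) and counted on 4× images, and relative viability is the treated-to-vehicle nuclei ratio, as the median of duplicate plates.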

Everolimus + Navitoclax = compound: CO[C@H]1C[C@@H]2CC[C@@H](C)[C@@](O)(O2)C(=O)C(=O)N2CCCC[C@H]2C(=O)O[C@H]([C@H](C)C[C@@H]2CC[C@@H](OCCO)[C@H](OC)C2)CC(=O)[C@H](C)/C=C(\C)[C@@H](O)[C@@H](OC)C(=O)[C@H](C)C[C@H](C)/C=C/C=C/C=C/1C [Everolimus] + CC1(C)CCC(c2ccc(Cl)cc2)=C(CN2CCN(c3ccc(C(=O)NS(=O)(=O)c4ccc(N[C@H](CCN5CCOCC5)CSc5ccccc5)c(S(=O)(=O)C(F)(F)F)c4)cc3)CC2)C1 [Navitoclax] (partner 0.5 µM)
Method in brief: as §1

Everolimus + Luminespib = compound: CO[C@H]1C[C@@H]2CC[C@@H](C)[C@@](O)(O2)C(=O)C(=O)N2CCCC[C@H]2C(=O)O[C@H]([C@H](C)C[C@@H]2CC[C@@H](OCCO)[C@H](OC)C2)CC(=O)[C@H](C)/C=C(\C)[C@@H](O)[C@@H](OC)C(=O)[C@H](C)C[C@H](C)/C=C/C=C/C=C/1C [Everolimus] + CCNC(=O)c1noc(-c2cc(C(C)C)c(O)cc2O)c1-c1ccc(CN2CCOCC2)cc1 [Luminespib] (partner 0.01 µM)
Method in brief: as §1

Everolimus + Linsitinib = compound: CO[C@H]1C[C@@H]2CC[C@@H](C)[C@@](O)(O2)C(=O)C(=O)N2CCCC[C@H]2C(=O)O[C@H]([C@H](C)C[C@@H]2CC[C@@H](OCCO)[C@H](OC)C2)CC(=O)[C@H](C)/C=C(\C)[C@@H](O)[C@@H](OC)C(=O)[C@H](C)C[C@H](C)/C=C/C=C/C=C/1C [Everolimus] + C[C@]1(O)C[C@@H](c2nc(-c3ccc4ccc(-c5ccccc5)nc4c3)c3c(N)nccn32)C1 [Linsitinib] (partner 1 µM)
Method in brief: as §1

Cell Line	relative viability (Everolimus + Foretinib; first compound 0.01 µM)	relative viability (Everolimus + Foretinib; first compound 0.03162 µM)	relative viability (Everolimus + Foretinib; first compound 0.1 µM)	relative viability (Everolimus + Foretinib; first compound 0.3162 µM)	relative viability (Everolimus + Foretinib; first compound 1 µM)	relative viability (Everolimus + Navitoclax; first compound 0.01 µM)	relative viability (Everolimus + Navitoclax; first compound 0.03162 µM)	relative viability (Everolimus + Navitoclax; first compound 0.1 µM)	relative viability (Everolimus + Navitoclax; first compound 0.3162 µM)	relative viability (Everolimus + Navitoclax; first compound 1 µM)	relative viability (Everolimus + Luminespib; first compound 0.01 µM)	relative viability (Everolimus + Luminespib; first compound 0.03162 µM)	relative viability (Everolimus + Luminespib; first compound 0.1 µM)	relative viability (Everolimus + Luminespib; first compound 0.3162 µM)	relative viability (Everolimus + Luminespib; first compound 1 µM)	relative viability (Everolimus + Linsitinib; first compound 0.01 µM)	relative viability (Everolimus + Linsitinib; first compound 0.03162 µM)	relative viability (Everolimus + Linsitinib; first compound 0.1 µM)	relative viability (Everolimus + Linsitinib; first compound 0.3162 µM)	relative viability (Everolimus + Linsitinib; first compound 1 µM)
NCI-H647	0.957	0.697	0.646	0.776	0.612	0.782	0.659	0.609	0.646	0.748	0.11	0.143	0.111	0.107	0.142	0.629	0.76	0.58	0.647	0.653
NCI-H727	0.67	0.569	0.611	0.603	0.425	0.263	0.211	0.179	0.231	0.208	0.47	0.372		0.345	0.365	0.207	0.2	0.203	0.291	0.362
NCI-H838	0.586	0.629	0.518	0.551	0.56	0.57	0.54	0.499	0.588	0.495	0.206	0.153	0.198	0.172	0.266	0.329	0.372	0.303	0.326	0.318
NCI-H1355	0.606	0.548	0.477	0.421	0.482	0.541	0.415	0.349	0.394	0.377	0.302	0.33	0.268	0.258	0.265	0.412	0.322	0.348	0.349	0.336
NCI-H1395	0.901	0.683	0.727	0.617	0.627	1.06	0.886	0.857	0.83	0.763	0.581	0.522	0.532	0.449	0.537	1	0.864	0.766	0.731	0.787
NCI-H1437	1.29	1.18	1.21	1.23	1.15	0.913	0.89	0.836	0.804	0.661	1.12	1.11	1.08	1.06	0.948	0.589	0.598	0.493	0.36	0.279
NCI-H1651	0.523	0.556	0.562	0.431	0.558	0.555	0.581	0.576	0.557	0.399	0.589	0.531	0.612	0.575	0.567	0.586	0.538	0.495	0.495	0.454
NCI-H1666	0.885	0.925	0.972	0.926	0.875	0.766	0.687	0.508	0.559	0.42	0.898	0.964	0.909	0.98	0.929	0.644	0.407	0.468	0.455	0.468
NCI-H1734	0.495	0.529	0.479	0.467	0.541	0.455	0.519	0.447	0.441	0.608	0.176	0.211	0.185	0.184	0.208	0.416	0.568	0.518	0.467	0.575
NCI-H1755	0.791	0.751	0.653	0.822	0.632	0.75	0.624	0.599	0.646	0.513	0.372	0.312	0.347	0.347	0.244	0.883	0.717	0.665	0.727	0.658
NCI-H1793	0.293	0.314	0.259	0.293	0.291	0.285	0.165	0.247	0.258	0.184	0.151	0.149	0.139	0.152	0.113	0.299	0.188	0.333	0.311	0.246
NCI-H1915	1.04	0.975	0.838	0.972	0.79	0.782	0.774	0.737	0.72	0.749	0.722	0.714	0.478	0.532	0.579	0.994	0.973	0.935	0.914	0.827
NCI-H1944	0.572	0.583	0.608	0.629	0.658	0.697	0.668	0.555	0.628	0.571	0.436	0.447	0.374	0.429	0.345	0.84	0.824	0.684	0.754	0.715
NCI-H1975	0.765	0.67	0.714	0.748	0.579	1.01	0.794	0.802	0.798	0.606	0.158	0.169	0.194	0.191	0.287	0.747	0.618	0.672	0.665	0.597

Source: the supplement of paper PMC10307832
